Assay results from patent publication US8592421B2, “Cyclic bioisosters of purine system derivatives and a pharmaceutical composition based thereon” (priority 2003, dated 2013).

Assays:
[1] = Electrochemical activity: polarographic reduction on mercury dripping electrode; type: physicochemical; conditions: for number of electrons participating in the reduction reaction: calculated with Geirovsky-Ilkovich equation; for i: 2.0% sodium chloride background, 9·10^−4 M; for i / −E1/2: 37° C., forward trace, average for the group of compounds; for −E1/2: vs SCE; for half-wave potential more positive at reverse stroke compared to forward stroke: polarograms of reverse stroke
Description: The study was carried out on a general-purpose polarograph PU-1 with a two-coordinate recorder of the “LKD” type using a three-electrode thermostatically controlled polarographic cell and mercury dripping electrode (MDE) with forced separation of the drop and a dropping period of 0.5 second. A platinum wire was used as an auxiliary electrode and a saturated calomel electrode (SCE) was used as a control electrode.
2.0% solutions of sodium chloride having pH 7.0, 7.2, 7.4, 7.6 were used as a background; the pH values of the background solution were corrected by a solution of sodium hydroxide. The polarographic cell was filled with 5.0 ml of the background solution and for 5 minutes was purged with nitrogen for removing the dissolved oxygen. Then 0.5 ml of solution of the studied substance was added to the background solution, and the polarogram was recorded as a polarographic wave. The concentration of the compounds in the polarographic cell was 9·10^−4 M.
The pH was measured on the pH-meter with an accuracy of +0.05 pH units. The polarographic measurements were carried out at a temperature of 37° C. The recording of polarograms of the investigated materials was effected under conditions of DC current at a scanning rate of the potential 10.0 mV/s with a active scanning stroke from a potential 0 to −0.5 V and sweep retrace from a −0.5 V to 0. The electric-current sensitivity was 5.0 mkA. The scale by the coordinate of the potentials was 50.0 mV/cm. The values of potentials of the half-wave E1/2 of the investigated materials are given with respect to the SCE potential.
The polarogram parameters such as a limiting current ilim and E1/2 were determined by the graphic method. The number of electrons participating in the reaction was calculated on the basis of the analysis of the polarographic wave using the Geirovsky-Ilkovich equation.
The calculation of the number of electrons participating in the reduction reaction was effected using the Geirovsky-Ilkovich equation: […]

[2] = Chronic toxicity of suppositories: indexes of peripheral blood; type: in vivo, rats; parameters: Thrombocytes: unit not given here; conditions: male rats, suppositories rectally; for Basophiles / Juveniles: 1 month/2 months (one value given), control 0

## O=c1[nH]n([C@@H]2O[C@H](CO)[C@@H](O)[C@H]2O)c(=O)c2ncccc12.[Na] [Compound 1, sodium salt of 7-(β-O-ribofuranosile)pyrido[2,3-1]-6H-pyridazine-5,8-dione sodium salt]
[1]
  number of electrons participating in the reduction reaction: 3.72
  half-wave potential more positive at reverse stroke compared to forward stroke: 25.0 mV
[1]; pH 7.0
  i: 0.26 ± 0.04 mkA
  −E1/2: 0.11 ± 0.02 V
[1]; pH 7.2
  i: 0.31 ± 0.02 mkA
  −E1/2: 0.11 ± 0.03 V
[1]; pH 7.4
  i: 0.27 ± 0.03 mkA
  −E1/2: 0.105 ± 0.01 V
[1]; pH 7.6
  i: 0.30 ± 0.01 mkA
  −E1/2: 0.105 ± 0.02 V

## O=c1[nH][nH]c(=O)c2nccnc12.[Na] [Compound 26, sodium salt of pyrazine[2,3-d]-6H-pyridazine-5,8-dione]
[1]
  half-wave potential more positive at reverse stroke compared to forward stroke: 27.0 mV

## O=c1[nH]n([C@@H]2O[C@H](CO)[C@@H](O)[C@H]2O)c(=O)c2ncnc(O)c12.[Na] [Compound 33, sodium salt of 4-hydroxy-7-(β-D-ribofuranosile)pyrimido[4,5-d]-6H-pyridazine-5,8-dione]
[1]
  number of electrons participating in the reduction reaction: 3.5
  half-wave potential more positive at reverse stroke compared to forward stroke: 27.0 mV
[1]; pH 7.0
  i: 0.30 ± 0.05 mkA
  −E1/2: 0.08 ± 0.02 V
[1]; pH 7.2
  i: 0.26 ± 0.02 mkA
  −E1/2: 0.085 ± 0.015 V
[1]; pH 7.4
  i: 0.30 ± 0.03 mkA
  −E1/2: 0.085 ± 0.02 V
[1]; pH 7.6
  i: 0.30 ± 0.02 mkA
  −E1/2: 0.09 ± 0.02 V

## O=C([O-])c1ncnc2c(=O)n([C@@H]3O[C@H](CO)[C@@H](O)[C@H]3O)[nH]c(=O)c12.[Na+] [Compound 34, sodium salt of 4-carboxy-7-(β-D-ribofuranosile)pyrimido[4,5-D]-6H-pyridazine-5,8-dione]
[2]; 50 mg/kg
  Basophiles: 0%
  Juveniles: 0%
[2]; 50 mg/kg, 1 month, control 0.8 ± 0.4
  Stab neutrophil: 1.0 ± 0.4%
[2]; 50 mg/kg, 1 month, control 2.2 ± 0.4
  REE: 1.8 ± 0.5 mm/h
[2]; 50 mg/kg, 1 month, control 2.8%0.3
  Reticulocytes: 2.7 ± 0.1%
[2]; 50 mg/kg, 1 month, control 4.0 + 0.3
  Eosinophiles: 3.5 ± 1.0%
[2]; 50 mg/kg, 1 month, control 5.6 ± 0.1
  Erythrocytes: 5.6 ± 0.1 mln/mm^3
[2]; 50 mg/kg, 1 month, control 10.5 ± 0.2
  Hemoglobin: 10.6 ± 0.1 mmol/L
[2]; 50 mg/kg, 1 month, control 17.4 ± 1.3
  Leukocyte: 15.9 ± 1.3 thousand/mm^3
[2]; 50 mg/kg, 1 month, control 45.9 ± 1.7
  Haematocrite: 46.9 ± 1.1%
[2]; 50 mg/kg, 1 month, control 81.4 ± 1.7
  Average volume of erythrocytes: 81.6 ± 1.9 Mkm^3
[2]; 50 mg/kg, 1 month, control 152 ± 10.2
  Coagulation, time: 148 ± 16 s
[2]; 50 mg/kg, 1 month, control 707 ± 23
  Thrombocytes: 670 ± 23
[2]; 50 mg/kg, 2 months, control 1.4 ± 0.2
  REE: 1.7 ± 0.3 mm/h
[2]; 50 mg/kg, 2 months, control 2.4 ± 0.4
  Stab neutrophil: 1.8 ± 0.5%
[2]; 50 mg/kg, 2 months, control 2.9 ± 0.2
  Reticulocytes: 2.9 ± 0.2%
[2]; 50 mg/kg, 2 months, control 4.4 + 1.2
  Eosinophiles: 4.1 ± 0.4%
[2]; 50 mg/kg, 2 months, control 6.1 ± 0.1
  Erythrocytes: 6.1 ± 0.2 mln/mm^3
[2]; 50 mg/kg, 2 months, control 11.4 ± 0.2
  Hemoglobin: 11.1 ± 0.2 mmol/L
[2]; 50 mg/kg, 2 months, control 19.1 ± 1.9
  Leukocyte: 17.8 ± 1.4 thousand/mm^3
[2]; 50 mg/kg, 2 months, control 45.9 ± 1.8
  Haematocrite: 47.5 ± 1.2%
[2]; 50 mg/kg, 2 months, control 74.6 + 1.9
  Average volume of erythrocytes: 76.7 ± 1.9 Mkm^3
[2]; 50 mg/kg, 2 months, control 316 ± 8
  Coagulation, time: 321 ± 10 s
[2]; 50 mg/kg, 2 months, control 593 ± 14
  Thrombocytes: 610 ± 15
[2]; 500 mg/kg
  Basophiles: 0%
  Juveniles: 0%
[2]; 500 mg/kg, 1 month, control 0.8 ± 0.4
  Stab neutrophil: 0.9 ± 0.2%
[2]; 500 mg/kg, 1 month, control 2.2 ± 0.4
  REE: 2.0 ± 0.4 mm/h
[2]; 500 mg/kg, 1 month, control 2.8%0.3
  Reticulocytes: 3.2 ± 0.2%
[2]; 500 mg/kg, 1 month, control 4.0 + 0.3
  Eosinophiles: 3.0 ± 0.9%
[2]; 500 mg/kg, 1 month, control 5.6 ± 0.1
  Erythrocytes: 5.6 ± 0.2 mln/mm^3
[2]; 500 mg/kg, 1 month, control 10.5 ± 0.2
  Hemoglobin: 10.6 ± 0.3 mmol/L
[2]; 500 mg/kg, 1 month, control 17.4 ± 1.3
  Leukocyte: 16.9 ± 1.0 thousand/mm^3
[2]; 500 mg/kg, 1 month, control 45.9 ± 1.7
  Haematocrite: 48.1 ± 1.5%
[2]; 500 mg/kg, 1 month, control 81.4 ± 1.7
  Average volume of erythrocytes: 84.1 ± 1.3 Mkm^3
[2]; 500 mg/kg, 1 month, control 707 ± 23
  Thrombocytes: 682 ± 24
[2]; 500 mg/kg, 2 months, control 1.4 ± 0.2
  REE: 1.8 ± 0.2 mm/h
[2]; 500 mg/kg, 2 months, control 2.4 ± 0.4
  Stab neutrophil: 1.4 ± 0.3%
[2]; 500 mg/kg, 2 months, control 2.9 ± 0.2
  Reticulocytes: 3.5 ± 0.3%
[2]; 500 mg/kg, 2 months, control 4.4 + 1.2
  Eosinophiles: 3.9 ± 1.4%
[2]; 500 mg/kg, 2 months, control 6.1 ± 0.1
  Erythrocytes: 6.6 ± 0.1 mln/mm^3
[2]; 500 mg/kg, 2 months, control 11.4 ± 0.2
  Hemoglobin: 12.4 ± 0.4 mmol/L
[2]; 500 mg/kg, 2 months, control 19.1 ± 1.9
  Leukocyte: 22.1 ± 1.1 thousand/mm^3
[2]; 500 mg/kg, 2 months, control 45.9 ± 1.8
  Haematocrite: 53.1 ± 1.6%
[2]; 500 mg/kg, 2 months, control 74.6 + 1.9
  Average volume of erythrocytes: 83.8 ± 1.5 Mkm^3
[2]; 500 mg/kg, 2 months, control 316 ± 8
  Coagulation, time: 312 ± 9 s
[2]; 500 mg/kg, 2 months, control 593 ± 14
  Thrombocytes: 631 ± 26

## COP(=O)(OC)C(C)(C)CC(C)=O [Dimesphosphon, dimethyl ester of 1,1-dimethyl-3-oxybuthyl of phosphonic acid, reference compound]
[1]
  number of electrons participating in the reduction reaction: 1.6
  half-wave potential more positive at reverse stroke compared to forward stroke: 50.0 mV
[1]; conclusion from calculated number
  electrons consumed during the reduction: 2
[1]; pH 7.0
  i: 0.10 ± 0.03 mkA
  −E1/2: 0.175 ± 0.01 V
[1]; pH 7.2
  i: 0.12 ± 0.03 mkA
  −E1/2: 0.17 ± 0.02 V
[1]; pH 7.4
  i: 0.11 ± 0.02 mkA
  −E1/2: 0.18 ± 0.01 V
[1]; pH 7.6
  i: 0.11 ± 0.02 mkA
  −E1/2: 0.18 ± 0.01 V

## disodium salt of 3-κapõoκcℏ-7-(β-D-ribofuranosile)pyrido[2,3-d]-6H-pyridazine-5,8-dione [Compound 5]
[1]
  number of electrons participating in the reduction reaction: 3.72
  half-wave potential more positive at reverse stroke compared to forward stroke: 25.0 mV
[1]; pH 7.0
  i: 0.26 ± 0.04 mkA
  −E1/2: 0.11 ± 0.02 V
[1]; pH 7.2
  i: 0.31 ± 0.02 mkA
  −E1/2: 0.11 ± 0.03 V
[1]; pH 7.4
  i: 0.27 ± 0.03 mkA
  −E1/2: 0.105 ± 0.01 V
[1]; pH 7.6
  i: 0.30 ± 0.01 mkA
  −E1/2: 0.105 ± 0.02 V

## potassium salt of 3-bromine-pyrazine[2,3-Cl]-6H-pyridazine-5,8-dione [Compound 27]
[1]
  number of electrons participating in the reduction reaction: 3.72
  half-wave potential more positive at reverse stroke compared to forward stroke: 20.0 mV
[1]; pH 7.0
  i: 0.32 ± 0.03 mkA
  −E1/2: 0.16 ± 0.02 V
[1]; pH 7.2
  i: 0.33 ± 0.04 mkA
  −E1/2: 0.19 ± 0.02 V
[1]; pH 7.4
  i: 0.34 ± 0.03 mkA
  −E1/2: 0.175 ± 0.01 V
[1]; pH 7.6
  i: 0.34 ± 0.02 mkA
  −E1/2: 0.16 ± 0.015 V
